Test results as given in patent US10321681B2, “Plant support formulation, vehicle for the delivery and translocation of phytologically beneficial substances and compositions containing same” (NORTH-WEST UNIVERSITY, priority 2006, dated 2019).

Test system: maize
Assay: Captan with Elementol R seed treatment, dry maize field trial
Format: in vivo
Settings: versus untreated seeds
Experimental: A genetically modified cultivar, supplied by a large seed producing company was used. One bag of treated seed was split and one portion of the seeds in the bag was treated with Captan, while another portion was treated with Captan mixed with Elementol R in the following manner. Captan is a broad-spectrum contact fungicide that has been used on corn seed since the 1950s. It is usually dyed pink and leaves a pink dust in the seed bag and planter box. It is very effective against a broad range of soil fungi. The prescribed amount of Captan was mixed directly with the seeds (Captan reference group). For the test group, seeds were mixed with a similar amount of Captan in 2% Elementol R. The seeds of both groups were briefly mixed or stirred with their individual treatment and then left to dry. Seeds were planted in blocks of 3 or 5 rows stretching the length of the maize field with untreated block s on both sides of each of the treatment groups in the North West Province, South Africa. Culturing was done according to general farming practices with no irrigation.
Plants of each of the untreated, the reference Captan group and the Elementol R/Captan group were collected by pulling up every fifth plant in a row. […]
The total plant mass, the root mass and the leaf mass of each plant were determined. […]

O=C1C2CC=CCC2C(=O)N1SC(Cl)(Cl)Cl (centres unmarked) [Captan]
root mass: only slightly enhanced root mass
leaf mass / growth of the plant leaves (fifty plants per group): did not result in any change of growth of the plant leaves
